Source: article PMC9585581, “Developing Photoaffinity Probes for Dopamine Receptor D2 to Determine Targets of Parkinson’s Disease Drugs” (ACS Chemical Neuroscience, 2022)

Tested on: DRD2-expressing 293T cells vs untransduced 293T cells
Assay: Flow cytometry quantification of probe labeling of cells
Format: cell-based, human
Details: probe 100 nm, photo-cross-linked, Alexa Fluor 555 azide; P < 0.0001, two-way ANOVA
Description: Flow cytometry was used to quantify the number of cells that were successfully labeled by probes 5 and 7 as these were the most promising biochemically and seemed to display the highest propensity for labeling DRD2-expressing cells. To perform the quantification, our 293T cell line-expressing DRD2 or unmodified 293T cells as a negative control were treated with probes at a 100 nm concentration, the lower concentration than the EC50 determination, likely due in large part to the covalent nature of the binding event versus the noncovalent EC50 assays. The probes were covalently cross-linked to the cells with UV, and the unbound probe was washed out. The azide-containing fluorescent dye was then clicked onto the probe, the unbound dye was washed out, and the cells were analyzed by flow cytometry (Figure 5a). […]
Figure 5 Flow cytometry quantification of probe labeling. […] The cells were then analyzed by flow cytometry. P values determined using two-way ANOVA in GraphPad; **** corresponds to P < 0.0001. […]
HEK293T cells and a stable HEK293T-derived cell line-expressing DRD2-Strep Tag II fusion were maintained in DMEM supplemented with 10% FBS, 100 U/mL penicillin, and 100 μg/mL streptomycin in a humidified atmosphere at 37 °C in 5% CO2. […] The cells were then washed 3 times with PBS with 5% BSA and analyzed with a BD Accuri C6 flow cytometer. […]

Structure (SMILES) | labeling of cells expressing DRD2 vs cells that do not (flow cytometry)
C#CCOc1ccc(C(=O)c2ccc(CNCCc3cccc4c3CC(=O)N4)cc2)cc1 [Compound 5, 4-(2-((4-(4-(Prop-2-yn-1-yloxy)benzoyl)benzyl)amino)ethyl)indolin-2-one] | highly statistically significant increase in the labeling of cells expressing DRD2 over those that do not
C#CCOc1ccc(C(=O)c2ccc(CN[C@H]3CCc4nc(N)sc4C3)cc2)cc1 [Compound 7, (S)-(4-(((2-Amino-4,5,6,7-tetrahydrobenzo[d]thiazol-6-yl)amino)methyl)phenyl)(4-(prop-2-yn-1-yloxy)phenyl)methanone] | highly statistically significant increase in the labeling of cells expressing DRD2 over those that do not
